Patent US12570639B2, “Tetrahydroquinoline derivative and medicinal use thereof” (Toray Industries, Inc., priority 2020, dated 2026)
pEC50: −log10 of the molar value.

Legend:
[1] = system: Human fibrosarcoma cells (HT-1080 cells); test: In vitro inhibitory action against ferroptosis (Erastin-induced cell death, Cell Counting Kit-8); format: cell-based; settings: Erastin 3 μmol/L, 24 hours
[2] = system: MOG-induced experimental autoimmune encephalomyelitis mouse model; test: Activity assessment 6 in MOG-induced experimental autoimmune encephalomyelitis mouse model; format: in vivo, C57BL/6J mice; settings: 10 mg/kg orally twice daily for 12 days starting 52 days after MOG35-55 inoculation; vs vehicle-dosing group (2.13)
Protocol: (§1) A PBS solution prepared to contain a synthetic partial peptide of MOG (MOG35-55; CSBio) at a concentration of 4 mg/mL was mixed with an equal volume of Freund's complete adjuvant, and a total of 0.1 mL (0.05 mL per flank) of the resulting MOG35-55 dosing solution was inoculated intradermally into the bilateral flanks of C57BL/6J mice (male, 10 weeks old, Charles River Laboratories Japan, Inc.). On the day of inoculation of the MOG35-55 dosing solution and on the second day after the inoculation, 200 μL of pertussis toxin (Sigma Co. LLC) prepared at a concentration of 1 μg/mL was further administered intraperitoneally to the mice.
(§2) The compound of Example 11, the compound of Example 32, and the compound of Example 36 were used as test compounds to assess the effect of the test compounds on increase of neurological score in the MOG-induced experimental autoimmune encephalomyelitis mouse model. […] In addition, the score was determined by the following criteria: 0, normal; 0.5, partial drooping tail; 1, full drooping tail or hind-limb weakness; 2, full drooping tail and hind-limb weakness; 3, hind-limb partial paralysis; 4, hind-limb complete paralysis; 5, fore- and hind-limb complete paralysis. […]

[3] = In vitro radical scavenging action (DPPH method); settings: 30 minutes at room temperature, maximum concentration 100 μmol/L
[4] = system: MOG-induced experimental autoimmune encephalomyelitis mouse model; test: Activity assessment 5 in MOG-induced experimental autoimmune encephalomyelitis mouse model; format: in vivo, C57BL/6J mice; settings: 10 mg/kg orally twice daily for 15 days starting 52 days after MOG35-55 inoculation; vs vehicle-dosing group (2.13)
Protocol: as §1, §2

[5] = evaluation concentration 10 μmol/L

| Compound | Ferroptosis inhibition rate (%) [1, 5] | neurological score reduction rate [2] | pEC50 [3] | Ferroptosis inhibition rate (%) ([1]; evaluation concentration 30 μmol/L) | neurological score reduction rate [4] |
| --- | --- | --- | --- | --- | --- |
| NS(=O)(=O)c1ccc(C2CCc3cc(F)ccc3N2)cc1 (stereo not drawn) [Example 108, 4-(6-fluoro-1,2,3,4-tetrahydroquinolin-2-yl)benzenesulfonamide] | 83.78% | 29.4% | < 4.00 | – | – |
| NS(=O)(=O)c1ccc(C2CCc3cc(Cl)ccc3N2)cc1 (stereo not drawn) [Example 117, 4-(6-chloro-1,2,3,4-tetrahydroquinolin-2-yl)benzenesulfonamide] | 76.27% | 32.4% | < 4.00 | – | – |
| NS(=O)(=O)c1ccc(C2CCc3ccccc3N2)cc1 (stereo not drawn) [Example 33, 4-(1,2,3,4-tetrahydroquinolin-2-yl)benzenesulfonamide] | – | – | < 4.00 | 84.88% | 38.2% |
